According to patent US20250145640A1, “2,2-DIFLUORO-5H-[1,3]DIOXOLO[4,5-F]ISOINDOL-7-ONE DERIVATIVES AS PESTICIDES” (SYNGENTA CROP PROTECTION AG, priority 2021, published 2025):

Assays:
Format in all cases: in vivo
[1] = tested on: Spodoptera littoralis (Egyptian Cotton Leaf Worm); experiment: Example B6: Activity against Spodoptera littoralis, sprayed cotton leaf discs on agar; details: foliar, 72 h, application rate 200 ppm, L1 larvae, assessed 3 days after infestation, read-out: control (at least one of mortality, anti-feedant effect, growth inhibition)
Procedure: Example B6: Activity Against Spodoptera littoralis (Egyptian Cotton Leaf Worm)
Cotton leaf discs were placed onto agar in 24-well microtiter plates and sprayed with aqueous test solutions prepared from 10′000 ppm DMSO stock solutions. After drying the leaf discs were infested with five L1 larvae. The samples were assessed for mortality, anti-feeding effect, and growth inhibition in comparison to untreated samples 3 days after infestation. Control of Spodoptera littoralis by a test sample is given when at least one of the categories mortality, anti-feedant effect, and growth inhibition is higher than the untreated sample.

[2] = tested on: Chilo suppressalis (Striped Rice Stemborer); experiment: Example B1: Activity against Chilo suppressalis, artificial diet in 24-well microtiter plates; details: 144 h, application rate 200 ppm, L2 larvae, assessed 6 days after infestation, read-out: control (at least one of mortality, anti-feedant effect, growth inhibition)
Procedure: Example B1: Activity Against Chilo suppressalis (Striped Rice Stemborer)
24-well microtiter plates with artificial diet were treated with aqueous test solutions prepared from 10′000 ppm DMSO stock solutions by pipetting. After drying, the plates were infested with L2 larvae (6-8 per well). The samples were assessed for mortality, anti-feeding effect, and growth inhibition in comparison to untreated samples 6 days after infestation. Control of Chilo suppressalis by a test sample is given when at least one of the categories mortality, anti-feedant effect, and growth inhibition is higher than the untreated sample.

[3] = tested on: Plutella xylostella (Diamond Back Moth); experiment: Example B5: Activity against Plutella xylostella, artificial diet in 24-well microtiter plates; details: 192 h, application rate 200 ppm, eggs, assessed 8 days after infestation, read-out: effect in at least one of the two categories (mortality or growth inhibition)
Procedure: Example B5: Activity Against Plutella xylostella (Diamond Back Moth)
24-well microtiter plates with artificial diet were treated with aqueous test solutions prepared from 10′000 ppm DMSO stock solutions by pipetting. After drying, Plutella eggs were pipetted through a plastic stencil onto a gel blotting paper and the plate was closed with it. The samples were assessed for mortality and growth inhibition in comparison to untreated samples 8 days after infestation.

[4] = tested on: Euschistus heros (Neotropical Brown Stink Bug); experiment: Example B3: Activity against Euschistus heros, sprayed soybean leaves on agar; details: 120 h, application rate 200 ppm, N2 nymphs, assessed 5 days after infestation, read-out: effect in at least one of the two categories (mortality or growth inhibition)
Procedure: Example B3: Activity Against Euschistus heros (Neotropical Brown Stink Bug)
Soybean leaves on agar in 24-well microtiter plates were sprayed with aqueous test solutions prepared from 10′000 ppm DMSO stock solutions. After drying the leaves were infested with N2 nymphs. The samples were assessed for mortality and growth inhibition in comparison to untreated samples 5 days after infestation.

[5] = tested on: Myzus persicae (Green peach aphid); experiment: Example B4: Activity against Myzus persicae, feeding/contact activity on sunflower leaf discs; details: foliar, 144 h, application rate 200 ppm, aphid population of mixed ages, assessed 6 days after infestation
Procedure: Example B4: Activity against Myzus persicae (Green peach aphid) Feeding/Contact activity Sunflower leaf discs were placed onto agar in a 24-well microtiter plate and sprayed with aqueous test solutions prepared from 10′000 ppm DMSO stock solutions. After drying, the leaf discs were infested with an aphid population of mixed ages. The samples were assessed for mortality 6 days after infestation.

[6] = tested on: Diabrotica Balteata (Corn Root Worm); experiment: Example B2: Activity against Diabrotica balteata, sprayed maize sprouts on agar; details: 96 h, application rate 200 ppm, L2 larvae, assessed 4 days after infestation, read-out: effect in at least one of the two categories (mortality or growth inhibition)
Procedure: Example B2: Activity Against Diabrotica Balteata (Corn Root Worm)
Maize sprouts placed onto an agar layer in 24-well microtiter plates were treated with aqueous test solutions prepared from 10′000 ppm DMSO stock solutions by spraying. After drying, the plates were infested with L2 larvae (6 to 10 per well). The samples were assessed for mortality and growth inhibition in comparison to untreated samples 4 days after infestation.

CCS(=O)(=O)c1c(N2Cc3cc4c(cc3C2=O)OC(F)(F)O4)nn2cc(C3CC3)ccc12 [P4, 6-(6-cyclopropyl-3-ethylsulfonyl-pyrazolo[1,5-a]pyridin-2-yl)-2,2-difluoro-5H-[1,3]dioxolo[4,5-f]isoindol-7-one]
≥ 80%: percent control (mortality, anti-feedant effect or growth inhibition) at 200 ppm [1] | control (mortality, anti-feedant effect or growth inhibition) at 200 ppm [2] | percent effect (mortality or growth inhibition) at 200 ppm [3] | percent effect (mortality or growth inhibition) at 200 ppm [4] | mortality at 200 ppm [5] | percent effect (mortality or growth inhibition) at 200 ppm [6]
